For 13 molecules, AC50, IC50 and EC50 results are on record in ChEMBL document CHEMBL1201862, “PubChem BioAssay data set” (2004).

The structures appear in SMILES notation. Calls of active or inactive are those of the source.

A short description of assay [1]: intracellular Trypanosoma cruzi inhibitors in host cells – cell-based, plate reader, cherry-pick samples, set 3, dose response (AID 651818).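 Also: compounds incubated with infected cells for about four days.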 Type of assay: functional.
Assay [2] has as its target T1, Methionyl-tRNA synthetase, putative (Trypanosoma brucei brucei, UniProt Q38C91).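 Also: Read-out by fluorescence polarization, run as a confirmatory high-throughput counterscreen; potency of MetRS inhibitors measured by reduced AMP formation.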
T1 sequence (Q38C91 whole entry): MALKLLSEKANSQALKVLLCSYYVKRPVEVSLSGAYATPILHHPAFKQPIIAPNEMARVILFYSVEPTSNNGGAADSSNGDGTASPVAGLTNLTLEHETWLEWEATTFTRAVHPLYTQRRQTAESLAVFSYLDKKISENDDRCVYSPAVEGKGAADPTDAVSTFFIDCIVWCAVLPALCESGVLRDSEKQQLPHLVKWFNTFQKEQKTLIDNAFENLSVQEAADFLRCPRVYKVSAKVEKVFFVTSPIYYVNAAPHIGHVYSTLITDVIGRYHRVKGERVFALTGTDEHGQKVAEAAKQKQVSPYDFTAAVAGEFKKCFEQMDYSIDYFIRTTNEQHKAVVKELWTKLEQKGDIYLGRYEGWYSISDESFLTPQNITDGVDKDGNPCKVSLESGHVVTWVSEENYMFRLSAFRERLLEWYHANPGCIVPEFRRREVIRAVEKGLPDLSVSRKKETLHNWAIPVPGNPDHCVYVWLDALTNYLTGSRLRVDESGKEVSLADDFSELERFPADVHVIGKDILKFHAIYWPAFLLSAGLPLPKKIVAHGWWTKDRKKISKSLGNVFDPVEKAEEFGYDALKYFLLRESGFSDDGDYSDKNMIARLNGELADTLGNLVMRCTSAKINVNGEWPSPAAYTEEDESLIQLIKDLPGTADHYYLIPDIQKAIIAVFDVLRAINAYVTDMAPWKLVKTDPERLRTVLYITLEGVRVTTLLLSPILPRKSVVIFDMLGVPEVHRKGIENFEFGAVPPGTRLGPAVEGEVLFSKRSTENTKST
Type of assay: functional, Trypanosoma brucei brucei strain 927/4 GUTat10.1.

The nature of assay [3]: blockers of HIV-1 envelope-mediated cell-cell fusion – cherry-pick, dose response (AID 652057). Type of assay: functional, cell-based.
Assay [4] concerns the target T2, Cytochrome P450 1A2 (Homo sapiens, UniProt P05177).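 Also: PubChem cytochrome P450 panel assay, CYP1A2 panel member.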
T2 sequence (P05177 whole entry): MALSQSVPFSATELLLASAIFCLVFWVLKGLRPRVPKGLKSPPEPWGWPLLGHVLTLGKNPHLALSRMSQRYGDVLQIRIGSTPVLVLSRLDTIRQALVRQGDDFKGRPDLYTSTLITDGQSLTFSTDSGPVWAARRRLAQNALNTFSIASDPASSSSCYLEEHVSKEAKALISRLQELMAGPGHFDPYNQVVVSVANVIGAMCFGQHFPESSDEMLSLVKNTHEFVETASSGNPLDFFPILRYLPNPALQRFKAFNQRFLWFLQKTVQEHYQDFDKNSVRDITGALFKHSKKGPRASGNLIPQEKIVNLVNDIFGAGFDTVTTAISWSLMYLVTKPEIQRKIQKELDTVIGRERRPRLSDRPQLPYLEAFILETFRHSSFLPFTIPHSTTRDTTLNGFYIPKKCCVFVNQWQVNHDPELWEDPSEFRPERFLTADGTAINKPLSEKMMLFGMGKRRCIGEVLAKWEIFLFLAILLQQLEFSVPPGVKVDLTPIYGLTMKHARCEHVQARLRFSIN

For assay [5], the target named is Cytochrome P450 2D6 (Homo sapiens, UniProt P10635).
Assay [6] addresses Cytochrome P450 2C19 (Homo sapiens, UniProt P33261). Nature of the assay: Cytochrome panel assay with activity outcomes. Panel member name: p450-cyp2c19 Compounds with AC50 equal or less than 10 uM are considered active. Type of assay: functional. Conditions: read-out: AC50.
The nature of assay [7]: HIV-1 AD8 envelope cell-cell fusion blockers – cherry-pick, dose response (AID 652062).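 Also: luciferase signal from cell-cell fusion driven by HIV-1 clade B AD8 Env; potency is for inhibitors of fusion seen as a drop in luminescence.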 Type of assay: functional, cell-based.
The target in assay [8] is T3, Latent membrane protein 1 (Human herpesvirus 4 (strain B95-8), UniProt P03230).
T3 sequence (P03230 whole entry): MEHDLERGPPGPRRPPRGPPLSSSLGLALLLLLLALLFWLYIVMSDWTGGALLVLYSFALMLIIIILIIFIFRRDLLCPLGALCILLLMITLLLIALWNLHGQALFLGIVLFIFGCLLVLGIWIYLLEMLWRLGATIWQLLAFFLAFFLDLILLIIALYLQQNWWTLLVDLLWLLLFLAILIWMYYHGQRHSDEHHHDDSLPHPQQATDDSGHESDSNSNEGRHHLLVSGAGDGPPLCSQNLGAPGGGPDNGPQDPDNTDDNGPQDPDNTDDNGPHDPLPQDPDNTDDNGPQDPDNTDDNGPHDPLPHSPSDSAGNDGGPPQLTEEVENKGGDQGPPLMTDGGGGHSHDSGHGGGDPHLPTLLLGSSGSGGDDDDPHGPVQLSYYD
Briefly: LMP1 TES1 pathway selectivity over dsRED control – imaging, HEK293T, dual-color eGFP/dsRED, cherry-picks, selectivity assay for LMP1 NF-kB inhibitor project, dose response (AID 588398). Type of assay: functional, cell-based.

Assay [9] concerns HEK293. Nature of the assay: EBV LMP1 TES2 canonical NF-kB signalling blockers – cell-based, HEK293, luciferase, cherry-pick, dose response (AID 588343). Type of assay: functional. Conditions: Homo sapiens.
The target in assay [10] is Steroidogenic factor 1 (Homo sapiens, UniProt Q13285). Nature of the assay: Counterscreen for inverse agonists of the liver receptor homolog-1 (LRH-1; NR5A2): Luminescence-based cell-based high throughput dose response assay to identify inverse agonists of the Steroidogenic Factor 1 Nuclear Receptor (SF1; NR5A1). Type of assay: functional. (In general: A counterscreen serves to expose hits that act by an unwanted route or on another target.)

Assay [11] is described as follows: nonselective StAR promoter luciferase inhibitors – cell-based, luminescence, luciferase reporter, counter-screen for LRH-1 inverse agonist project, dose response (AID 651969). Type of assay: functional. Background: Reporter assays use an easily measured gene product as a stand-in for the process of interest.
Assay [12] addresses Nuclear receptor subfamily 5 group A member 2 (Homo sapiens, UniProt O00482). Type of assay: functional, cell-based.
The target in assay [13] is Adenosylmethionine-8-amino-7-oxononanoate aminotransferase (Mycobacterium tuberculosis, UniProt P9WQ81). Nature of the assay: Mycobacterium tuberculosis BioA enzyme inhibitor Measured in Biochemical System Using Plate Reader - 2163-02_Inhibitor_Dose_CherryPick_Activity. Type of assay: functional, Mycobacterium tuberculosis UT205.
Assay [14] deals with INS1. Nature of the assay: INS-1E survival protection against cytokine death – cell-based, luminescence, retest, dose response (AID 449756).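 Also: cell death triggered by IL-1 beta plus TNF-alpha plus IFN-gamma mixture; protective hits raise ATP signal compared with cytokine alone wells.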 Type of assay: functional. Conditions: Rattus norvegicus, INS1.
The test system of assay [15] is Streptococcus sp. 'group A'. Nature of the assay: Streptococcus pyogenes SK(-)GAS viability under kanamycin – luminescence, BacTiterGlo, confirmation, counter-screen for streptokinase expression inhibitor project, dose response (AID 1900). Type of assay: functional, organism-based.
Assay [16] is described as follows: Luminescence-based counterscreen assay for KLF5 inhibitors: dose response cell-based high throughput screening assay to identify cytotoxic compounds using the IEC-6 intestinal epithelial cell line. [Related pubchem assays: 1700 (Primary screen.), 1834 (Confirmation screen.), 1858 (Summary AID.), 1905 (Counterscreen.)]. Type of assay: functional.
For assay [17], the target named is Nonstructural protein 1 (Influenza A virus, UniProt Q194T2). Type of assay: functional, Influenza A virus (A/California/07/2009(H1N1)).
In assay [18] the test system is Streptococcus. Nature of the assay: GAS UMAA2166 growth inhibition – luminescence, BacTiterGlo, counter-screen for streptokinase expression inhibitor project, dose response (AID 1915).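 Also: potency for reduction of bacterial viability or growth.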 Type of assay: functional, organism-based.
Assay [19] addresses Protein Wnt-3a (Mus musculus, UniProt P27467). Nature of the assay: antagonism of Wnt3a pathway luciferase reporter – Wnt-LIGHT cells, luminescence, selectivity assay for Gli-SUFU antagonist project, dose response (AID 651570).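 Also: Wnt-LIGHT reporter cells stimulated with conditioned medium from Wnt3a-producing cells.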 Conditions: read-out: IC50_Mean. Type of assay: functional.
Assay [20] has as its target T4, Histone-lysine N-methyltransferase NSD2 (Homo sapiens, UniProt O96028).
T4 sequence (O96028 whole entry): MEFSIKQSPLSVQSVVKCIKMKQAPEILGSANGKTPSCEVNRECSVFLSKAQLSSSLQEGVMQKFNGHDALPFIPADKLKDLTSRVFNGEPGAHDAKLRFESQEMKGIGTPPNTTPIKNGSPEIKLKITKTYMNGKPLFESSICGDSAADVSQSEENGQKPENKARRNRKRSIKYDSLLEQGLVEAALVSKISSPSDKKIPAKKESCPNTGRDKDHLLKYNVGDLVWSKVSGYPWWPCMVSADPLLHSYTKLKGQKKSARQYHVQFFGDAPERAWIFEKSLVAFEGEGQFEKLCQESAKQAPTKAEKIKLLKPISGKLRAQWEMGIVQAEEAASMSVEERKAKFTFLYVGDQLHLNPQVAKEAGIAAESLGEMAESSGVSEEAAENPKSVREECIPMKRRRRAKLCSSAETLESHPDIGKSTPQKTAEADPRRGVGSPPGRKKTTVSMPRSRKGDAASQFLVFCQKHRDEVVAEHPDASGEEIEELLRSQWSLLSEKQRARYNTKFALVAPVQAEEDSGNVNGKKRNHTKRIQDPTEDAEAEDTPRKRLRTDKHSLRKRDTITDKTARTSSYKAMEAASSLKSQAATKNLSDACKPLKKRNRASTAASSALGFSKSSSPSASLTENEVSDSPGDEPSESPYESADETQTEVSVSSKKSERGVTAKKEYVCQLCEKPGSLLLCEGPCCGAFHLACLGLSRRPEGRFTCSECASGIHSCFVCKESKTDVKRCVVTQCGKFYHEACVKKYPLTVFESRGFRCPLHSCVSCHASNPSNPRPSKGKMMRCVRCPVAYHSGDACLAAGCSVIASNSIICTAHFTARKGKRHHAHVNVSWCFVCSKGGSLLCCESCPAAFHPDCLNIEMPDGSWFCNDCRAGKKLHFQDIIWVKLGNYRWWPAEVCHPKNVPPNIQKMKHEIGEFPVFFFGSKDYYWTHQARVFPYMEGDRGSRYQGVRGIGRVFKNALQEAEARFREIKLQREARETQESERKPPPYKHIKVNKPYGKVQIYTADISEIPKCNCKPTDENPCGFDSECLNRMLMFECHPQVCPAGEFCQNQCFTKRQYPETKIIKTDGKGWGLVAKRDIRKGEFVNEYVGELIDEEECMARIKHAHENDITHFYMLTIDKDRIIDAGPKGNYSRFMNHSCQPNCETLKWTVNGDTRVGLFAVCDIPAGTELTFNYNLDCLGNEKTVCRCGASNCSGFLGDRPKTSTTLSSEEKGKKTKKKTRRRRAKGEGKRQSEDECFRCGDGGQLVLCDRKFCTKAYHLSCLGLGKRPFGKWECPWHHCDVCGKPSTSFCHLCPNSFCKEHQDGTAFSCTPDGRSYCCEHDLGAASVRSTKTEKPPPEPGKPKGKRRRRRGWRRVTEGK
Type of assay: biochemical.

Assay [21] deals with Mitochondrial peptide methionine sulfoxide reductase (Bos taurus, UniProt P54149). Type of assay: functional.
Assay [22] can be described thus: cells. Type of assay: functional.
A short description of assay [23]: Counterscreen for inhibitors of Trypanosoma brucei methionyl tRNA synthetase (MetRS): Luminescence-based cell-based high throughput dose response assay to identify compounds that are cytotoxic to Jurkat human T lymphocyte cells. Type of assay: functional.

Sequence of Adenosylmethionine-8-amino-7-oxononanoate aminotransferase (P9WQ81 whole entry): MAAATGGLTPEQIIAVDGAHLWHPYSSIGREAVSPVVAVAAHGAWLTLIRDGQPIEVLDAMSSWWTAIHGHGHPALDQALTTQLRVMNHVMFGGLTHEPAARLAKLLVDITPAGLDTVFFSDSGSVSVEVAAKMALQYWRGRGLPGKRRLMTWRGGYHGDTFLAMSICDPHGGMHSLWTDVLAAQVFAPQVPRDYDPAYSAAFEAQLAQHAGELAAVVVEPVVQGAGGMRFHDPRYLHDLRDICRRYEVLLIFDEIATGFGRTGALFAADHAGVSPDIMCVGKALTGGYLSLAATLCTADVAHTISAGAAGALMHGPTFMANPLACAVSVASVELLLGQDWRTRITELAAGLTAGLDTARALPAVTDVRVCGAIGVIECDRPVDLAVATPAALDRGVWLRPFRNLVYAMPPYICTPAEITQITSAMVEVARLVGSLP
Sequence of Mitochondrial peptide methionine sulfoxide reductase (P54149 whole entry): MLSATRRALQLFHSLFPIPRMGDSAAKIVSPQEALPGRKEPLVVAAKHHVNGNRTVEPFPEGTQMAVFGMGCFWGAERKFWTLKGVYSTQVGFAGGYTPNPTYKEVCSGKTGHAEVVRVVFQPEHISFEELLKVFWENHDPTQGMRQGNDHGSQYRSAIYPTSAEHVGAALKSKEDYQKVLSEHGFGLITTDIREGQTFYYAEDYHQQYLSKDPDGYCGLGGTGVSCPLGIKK
Sequence of Steroidogenic factor 1 (Q13285 whole entry): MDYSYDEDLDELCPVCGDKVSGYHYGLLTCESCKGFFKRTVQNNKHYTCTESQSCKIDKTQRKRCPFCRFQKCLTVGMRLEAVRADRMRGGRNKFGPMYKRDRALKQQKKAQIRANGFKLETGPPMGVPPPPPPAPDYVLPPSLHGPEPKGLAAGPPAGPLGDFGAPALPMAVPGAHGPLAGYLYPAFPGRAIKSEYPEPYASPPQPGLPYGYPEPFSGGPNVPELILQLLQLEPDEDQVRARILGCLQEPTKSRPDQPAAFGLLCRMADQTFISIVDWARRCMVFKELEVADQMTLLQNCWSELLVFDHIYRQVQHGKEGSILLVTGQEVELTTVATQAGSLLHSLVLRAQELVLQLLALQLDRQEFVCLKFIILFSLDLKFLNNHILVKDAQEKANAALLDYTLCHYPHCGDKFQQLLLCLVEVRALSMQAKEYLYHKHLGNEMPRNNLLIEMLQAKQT
Sequence of Nuclear receptor subfamily 5 group A member 2 (O00482 whole entry): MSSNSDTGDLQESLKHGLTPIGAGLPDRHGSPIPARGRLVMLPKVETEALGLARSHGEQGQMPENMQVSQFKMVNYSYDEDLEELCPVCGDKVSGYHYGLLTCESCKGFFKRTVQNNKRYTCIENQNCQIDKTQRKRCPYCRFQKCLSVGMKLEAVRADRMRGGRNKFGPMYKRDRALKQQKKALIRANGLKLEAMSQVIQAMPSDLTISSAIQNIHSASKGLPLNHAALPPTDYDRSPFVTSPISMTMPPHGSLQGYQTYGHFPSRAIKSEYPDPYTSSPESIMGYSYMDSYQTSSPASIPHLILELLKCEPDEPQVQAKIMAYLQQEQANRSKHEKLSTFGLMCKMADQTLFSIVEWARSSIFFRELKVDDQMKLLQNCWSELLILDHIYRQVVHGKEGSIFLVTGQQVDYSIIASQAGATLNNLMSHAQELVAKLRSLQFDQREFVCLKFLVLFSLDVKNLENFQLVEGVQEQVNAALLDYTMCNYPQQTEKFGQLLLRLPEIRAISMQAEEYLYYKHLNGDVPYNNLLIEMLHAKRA
Sequence of Cytochrome P450 2C19 (P33261 whole entry, the tested form may be a part): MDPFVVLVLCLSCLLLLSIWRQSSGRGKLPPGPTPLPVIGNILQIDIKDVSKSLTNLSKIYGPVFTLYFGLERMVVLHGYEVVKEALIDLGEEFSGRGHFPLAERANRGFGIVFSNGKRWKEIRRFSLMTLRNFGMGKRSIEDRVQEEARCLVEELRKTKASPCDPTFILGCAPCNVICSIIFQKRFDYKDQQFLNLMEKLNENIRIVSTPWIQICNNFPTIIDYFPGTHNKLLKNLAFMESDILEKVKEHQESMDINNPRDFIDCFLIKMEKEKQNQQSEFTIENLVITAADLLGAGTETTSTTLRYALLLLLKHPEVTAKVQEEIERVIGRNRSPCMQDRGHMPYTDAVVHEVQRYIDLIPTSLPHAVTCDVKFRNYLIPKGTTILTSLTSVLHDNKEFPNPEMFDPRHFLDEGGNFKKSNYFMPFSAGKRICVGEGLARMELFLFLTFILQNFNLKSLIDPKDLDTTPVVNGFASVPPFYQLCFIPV
Sequence of Cytochrome P450 2D6 (P10635 whole entry): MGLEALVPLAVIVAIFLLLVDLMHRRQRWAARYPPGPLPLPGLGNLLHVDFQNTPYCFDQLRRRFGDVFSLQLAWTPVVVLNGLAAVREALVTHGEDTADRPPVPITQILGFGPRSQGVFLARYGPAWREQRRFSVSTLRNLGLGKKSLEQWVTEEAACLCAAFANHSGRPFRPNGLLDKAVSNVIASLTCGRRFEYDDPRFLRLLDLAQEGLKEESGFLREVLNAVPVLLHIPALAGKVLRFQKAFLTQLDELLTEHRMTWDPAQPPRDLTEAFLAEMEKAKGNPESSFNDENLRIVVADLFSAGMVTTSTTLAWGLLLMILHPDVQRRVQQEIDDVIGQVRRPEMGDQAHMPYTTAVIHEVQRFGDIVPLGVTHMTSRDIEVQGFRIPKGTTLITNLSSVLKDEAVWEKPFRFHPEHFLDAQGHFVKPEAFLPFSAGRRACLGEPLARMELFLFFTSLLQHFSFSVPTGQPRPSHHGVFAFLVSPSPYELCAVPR
Sequence of Nonstructural protein 1 (Q194T2 whole entry): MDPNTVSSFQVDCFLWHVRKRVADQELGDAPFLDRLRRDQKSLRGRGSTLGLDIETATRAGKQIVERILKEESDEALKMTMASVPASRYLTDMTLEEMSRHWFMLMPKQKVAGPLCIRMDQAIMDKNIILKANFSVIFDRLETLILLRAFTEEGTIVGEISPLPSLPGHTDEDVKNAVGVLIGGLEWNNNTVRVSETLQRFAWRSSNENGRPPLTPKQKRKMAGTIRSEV
Sequence of Protein Wnt-3a (P27467 whole entry): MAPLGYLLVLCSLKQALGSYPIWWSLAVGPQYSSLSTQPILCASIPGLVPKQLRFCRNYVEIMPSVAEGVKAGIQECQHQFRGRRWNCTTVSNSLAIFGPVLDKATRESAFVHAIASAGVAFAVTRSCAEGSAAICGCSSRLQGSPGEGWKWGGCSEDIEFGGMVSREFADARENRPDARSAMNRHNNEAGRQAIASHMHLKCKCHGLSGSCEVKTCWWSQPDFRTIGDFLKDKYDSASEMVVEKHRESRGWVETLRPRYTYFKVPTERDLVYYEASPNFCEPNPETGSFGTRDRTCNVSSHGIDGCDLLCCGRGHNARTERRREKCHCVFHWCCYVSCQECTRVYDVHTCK

As usually defined, the AC50 is the concentration at which the activity in the assay is half-maximal. Turning to `C[C@@H]1CN([C@@H](C)CO)C(=O)Cc2cc(NC(=O)Nc3ccc(F)cc3)ccc2O[C@@H]1CN(C)Cc1ccc(C(=O)Nc2ccccc2N)cc1`, the AC50 in assay [1] is 2.16 µM (active).
With `O=C(CSc1nc2ccc(Cl)cc2[nH]1)c1c[nH]c2ccccc12`, in [2], the IC50 is 39.5 µM (inactive).
As to `COc1ccc(S(=O)(=O)NNC(=O)C2Cc3c(ccc4ccccc34)O2)cc1` (stereo not given), the concentration at half-maximal activity (AC50) in [3] was 43.7 µM (active); in assay [4], 25.1 µM (inconclusive); in [5], 39.8 µM (inconclusive); in assay [6], 5.62 µM (inconclusive); in assay [7], 13.2 µM (active); in assay [8] it was 74.8 µM (active). Also, the AC50 in assay [9] was > 350 µM (inactive).
For `O=C(NCC1CCCO1)c1ccc(NC(=O)c2cccc([N+](=O)[O-])c2)cc1` (stereo not given), the IC50 was 1.32 µM (active) in assay [10], 35.9 µM (inactive) in assay [11] and 3.99 µM (active) in assay [12].
With `COc1ccc(Nc2c(-c3ccc(OC)cc3)nc3cnccn23)cc1`, the concentration at half-maximal activity (AC50) in [13] was 1.34 µM (active).
The EC50 is the concentration needed to bring the measured effect to its halfway point. In the case of `O=C(N/N=C/c1cc(Cl)ccc1O)c1cccnc1`, the AC50 is 1.71 µM (active) in assay [14] and 128 µM (active) in [8]. Also, the EC50 is 1.81 µM (active) in assay [15] and 7.97 µM (active) in assay [18]. For the same molecule, the IC50 in assay [16] is > 1.48 µM (active); in [17], 5.8 µM (active).
As for `CCN1CCCC1CNc1[nH]cnc2c3cc(Cl)ccc3nc1-2` (stereo not given), the IC50 in assay [19] was 50 µM (inactive). In addition, the AC50 in assay [20] was > 20 µM (inactive).
Consider `CCOC(=O)/C(C#N)=C/C(C(=N)N1CCN(c2ccc(OC)cc2)CC1)=C(/O)OCC`, for which the IC50 in [21] is 139 µM (inactive).
On to `C[C@H](CO)N1C[C@H](C)[C@H](CN(C)Cc2ccc3c(c2)OCO3)Oc2c(NC(=O)c3nc4ccccc4s3)cccc2C1=O`, for which, in assay [1], the half-maximal activity concentration (AC50) was 4.58 µM (active).
In the case of `CCOC(=O)/C(C#N)=C/Nc1ccccc1OC`, the IC50 in assay [21] is 155 µM (inactive).
As to `Cc1ccc(NC(=O)COC(=O)C(NS(=O)(=O)c2ccc(Cl)cc2)C(C)O)cc1C` (stereo not given), the IC50 in assay [10] is 2.17 µM (active); in assay [22], 6.57 µM (active); in assay [11] it was 35.9 µM (inactive); in [12], 12 µM (inactive).
With `COc1ccc(Cn2ccc(=O)c(Cc3c(Cl)cccc3Cl)c2C)cc1`, the half-maximal activity concentration (AC50) in assay [13] was 7.22 µM (active).
As for `O=C(CSc1nc2cc(Cl)ccc2[nH]1)c1c[nH]c2ccccc12`, in [23], the IC50 is 83.3 µM (inactive).
